Data: publication PMC7692551, “Characterization of a Robust and pH-Stable Tannase from Mangrove-Derived Yeast Rhodosporidium diobovatum Q95” (Marine Drugs, 2020)

These molecules were tested on T1, TanRd (assay: gallate ester hydrolysis, gallic acid release). Conditions: kinetic assay conditions not stated.
T1 construct: recombinant secreted from Yarrowia lipolytica, codon-optimised, XPR2 signal peptide, His-tag; ORF 1719 bp, 572 aa, predicted native signal peptide 1-19
Type: biochemical, Rhodotorula diobovata
Excerpt: gallate ester hydrolysis, gallic acid release on TanRd

Structure (SMILES)	Km [µM]
COC(=O)c1cc(O)c(O)c(O)c1 [MG, methyl gallate]	2310
CCCOC(=O)c1cc(O)c(O)c(O)c1 [PG, propyl gallate]	1490
O=C(O[C@@H]1Cc2c(O)cc(O)cc2O[C@@H]1c1cc(O)c(O)c(O)c1)c1cc(O)c(O)c(O)c1 [EGCG, epigallocatechin gallate]	2190
O=C(O[C@H]1Cc2c(O)cc(O)cc2O[C@@H]1c1ccc(O)c(O)c1)c1cc(O)c(O)c(O)c1 [CG, catechin gallate]	1670
O=C(O[C@@H]1Cc2c(O)cc(O)cc2O[C@@H]1c1ccc(O)c(O)c1)c1cc(O)c(O)c(O)c1 [ECG, epicatechin gallate]	1650
